# Laboratory results from PMC5739422, “Metabolomic profiling and stable isotope labelling of Trichomonas vaginalis and Tritrichomonas foetus reveal major differences in amino acid metabolism including the production of 2-hydroxyisocaproic acid, cystathionine and S-methylcysteine” (PLoS ONE, 2017).
# System: recombinant T. vaginalis cysteine synthase (CS)
# Test: coupled assay with MGL1 and LDH, NADH oxidation at […] nm
# Format: biochemical, Trichomonas vaginalis
# Details: 200 mM potassium phosphate pH 7.8, 37°C
Compound,"Km (SMC synthase reaction, 10 mM OPS) [mM]","Km (cysteine synthase reaction, 3 mM Na2S) [mM]"
CS [CH3SNa],4.3 ± 1.6,
N[C@@H](COP(=O)(O)O)C(=O)O [OPS],,18.2 ± 0.8
